In ChEMBL document CHEMBL1201862, “PubChem BioAssay data set” (2004):
Active and inactive are the calls of the source.

Legend:
[1] = Trypanosoma cruzi growth suppression in host cells – NIH3T3 host cells, beta-gal luminescence, confirmation (AID 2044); format: functional, cell-based;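 further: intracellular parasites grown in NIH/3T3 mouse fibroblasts as host cells; luminescent beta-galactosidase reporter signal from transgenic T. cruzi replicating inside host cells; inhibitors lower the luminescence signal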
[2] = microbe, parasite or virus in culture; format: functional; conditions: Mycobacterium tuberculosis
[3] = NIH3T3 cell viability loss – ATP luminescence, mouse fibroblasts, counter-screen, dose response (AID 2010); format: functional, cell-based;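 further: cells exposed to compound for about 90 hours before reading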
[4] = molecular target: T1, Replicative DNA helicase DnaB (Mycobacterium tuberculosis, UniProt P9WMR3); test: DnaB intein splicing inhibitors, dose response, biochemical, cell-free fluorescence (AID 449749); format: functional
T1 sequence (P9WMR3 whole entry): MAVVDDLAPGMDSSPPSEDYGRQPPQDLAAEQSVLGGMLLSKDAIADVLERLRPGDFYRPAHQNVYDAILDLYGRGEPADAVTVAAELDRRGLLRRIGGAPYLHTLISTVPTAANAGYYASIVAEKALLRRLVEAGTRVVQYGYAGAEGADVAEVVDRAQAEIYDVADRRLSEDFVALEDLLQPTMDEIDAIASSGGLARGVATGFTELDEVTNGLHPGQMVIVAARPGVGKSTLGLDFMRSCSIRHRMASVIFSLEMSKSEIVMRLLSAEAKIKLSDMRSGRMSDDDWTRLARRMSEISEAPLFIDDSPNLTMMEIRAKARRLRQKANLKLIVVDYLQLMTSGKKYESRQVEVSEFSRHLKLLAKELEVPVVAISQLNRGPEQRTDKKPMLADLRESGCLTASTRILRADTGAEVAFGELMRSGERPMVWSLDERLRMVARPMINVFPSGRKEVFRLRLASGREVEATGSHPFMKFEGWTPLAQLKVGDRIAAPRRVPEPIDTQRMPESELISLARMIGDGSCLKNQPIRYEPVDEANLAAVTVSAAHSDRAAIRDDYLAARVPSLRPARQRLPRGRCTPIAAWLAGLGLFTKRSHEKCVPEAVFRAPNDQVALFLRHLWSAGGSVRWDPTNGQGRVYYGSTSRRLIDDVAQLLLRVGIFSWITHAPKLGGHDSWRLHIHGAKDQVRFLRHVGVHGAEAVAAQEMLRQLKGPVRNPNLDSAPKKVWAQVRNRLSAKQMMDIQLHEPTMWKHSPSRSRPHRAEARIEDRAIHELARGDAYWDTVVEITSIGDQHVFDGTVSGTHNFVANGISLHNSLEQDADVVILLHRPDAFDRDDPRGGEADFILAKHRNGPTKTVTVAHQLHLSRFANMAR

Protein RecA = molecular target: T2, Protein RecA (Mycobacterium tuberculosis, UniProt P9WHJ3); test: Fluorescence Cell-Free Homogeneous Dose Retest to Identify Inhibitors of RecA-Intein Splicing Activity. [Related pubchem assays (depositor defined):AID2097, AID2223, AID489010, AID492950]; format: functional
T2 sequence (P9WHJ3 whole entry): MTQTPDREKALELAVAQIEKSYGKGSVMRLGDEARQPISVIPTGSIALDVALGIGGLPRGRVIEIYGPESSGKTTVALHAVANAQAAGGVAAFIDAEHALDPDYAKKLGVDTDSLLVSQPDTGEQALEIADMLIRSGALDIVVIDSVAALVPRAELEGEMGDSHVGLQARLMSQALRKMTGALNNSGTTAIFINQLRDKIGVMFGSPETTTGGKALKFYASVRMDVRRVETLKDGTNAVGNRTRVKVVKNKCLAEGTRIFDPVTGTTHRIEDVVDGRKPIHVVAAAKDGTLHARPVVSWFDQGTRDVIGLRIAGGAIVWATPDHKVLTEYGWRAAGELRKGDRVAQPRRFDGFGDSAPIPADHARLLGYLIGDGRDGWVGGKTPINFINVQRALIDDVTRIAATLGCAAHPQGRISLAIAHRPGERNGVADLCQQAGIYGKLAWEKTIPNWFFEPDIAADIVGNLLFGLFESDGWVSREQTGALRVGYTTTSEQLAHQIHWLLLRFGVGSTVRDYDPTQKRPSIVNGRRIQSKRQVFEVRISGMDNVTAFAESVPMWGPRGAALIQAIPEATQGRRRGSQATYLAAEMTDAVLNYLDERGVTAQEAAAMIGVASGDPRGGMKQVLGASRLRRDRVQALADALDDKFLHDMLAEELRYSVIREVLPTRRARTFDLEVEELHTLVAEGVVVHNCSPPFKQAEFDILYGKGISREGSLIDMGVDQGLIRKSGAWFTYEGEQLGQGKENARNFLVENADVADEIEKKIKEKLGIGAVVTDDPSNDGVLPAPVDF

[5] = molecular target: T3, Polyadenylate-binding protein 1 (Homo sapiens, UniProt P11940); test: MLLE binding blockers, Cy5 peptide tracer – biochemical, fluorescence polarization, Cy5-PAM2 peptide, secondary, miRNA deadenylation inhibitor project, dose response (AID 602260); format: functional; conditions: read-out: IC50_Mean
T3 sequence (P11940 whole entry): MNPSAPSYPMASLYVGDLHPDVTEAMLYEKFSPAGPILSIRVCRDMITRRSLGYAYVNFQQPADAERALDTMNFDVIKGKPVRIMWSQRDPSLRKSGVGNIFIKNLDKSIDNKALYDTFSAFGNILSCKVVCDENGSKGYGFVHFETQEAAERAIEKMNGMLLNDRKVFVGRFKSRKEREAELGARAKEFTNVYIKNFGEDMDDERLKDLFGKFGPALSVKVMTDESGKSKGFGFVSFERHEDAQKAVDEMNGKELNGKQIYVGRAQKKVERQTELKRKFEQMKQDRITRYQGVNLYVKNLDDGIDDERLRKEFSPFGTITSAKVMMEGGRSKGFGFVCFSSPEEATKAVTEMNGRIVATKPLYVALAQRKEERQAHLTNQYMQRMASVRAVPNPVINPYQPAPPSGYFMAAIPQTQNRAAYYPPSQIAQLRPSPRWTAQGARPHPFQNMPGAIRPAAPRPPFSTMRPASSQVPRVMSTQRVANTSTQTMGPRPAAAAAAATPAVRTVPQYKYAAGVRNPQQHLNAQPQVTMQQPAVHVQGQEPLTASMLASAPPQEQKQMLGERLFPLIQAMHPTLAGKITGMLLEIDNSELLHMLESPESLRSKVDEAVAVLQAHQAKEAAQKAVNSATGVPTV

[6] = molecular target: Mitochondrial peptide methionine sulfoxide reductase (Bos taurus, UniProt P54149); test: Absorbance-based biochemical high throughput dose response assay for activators of Methionine sulfoxide reductase A (MsrA).; format: functional
Sequence of Mitochondrial peptide methionine sulfoxide reductase (P54149 whole entry, the tested form may be a part): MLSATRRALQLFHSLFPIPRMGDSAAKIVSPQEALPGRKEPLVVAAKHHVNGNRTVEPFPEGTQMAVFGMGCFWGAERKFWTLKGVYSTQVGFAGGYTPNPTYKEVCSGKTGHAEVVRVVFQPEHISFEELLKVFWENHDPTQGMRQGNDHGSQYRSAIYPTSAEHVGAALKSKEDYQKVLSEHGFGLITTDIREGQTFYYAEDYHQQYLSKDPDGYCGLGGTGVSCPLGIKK

[7] = molecular target: T3, Polyadenylate-binding protein 1; test: MLLE domain peptide-binding blockers, IC50 – biochemical, fluorescence polarization, FITC-PAM2 peptide, dose response (AID 602259); format: functional; conditions: read-out: IC50_Mean
[8] = bead-based luminescence quenchers, dual-tagged ARNT – biochemical, AlphaScreen, cherry-pick, artefact control for ARNT-TACC3 interaction inhibitor project, dose response (AID 651705); format: functional;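 further: AlphaScreen bead proximity signal that flags compounds interfering with the detection technology; potency reflects signal decrease which marks the compound as an assay artifact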
[9] = molecular target: Matrix metalloproteinase-14 (Homo sapiens, UniProt P50281); test: Dose Response confirmation of uHTS hits for a small molecule inhibitors of MT1-MMP activation in a fluorescence assay set 1.; format: functional
Caspase-6 = Caspase-6 (Homo sapiens, UniProt P55212); test: inhibition of CASP6 peptide cleavage – biochemical, VEID-R110 fluorescence, cherry-pick, dose response (AID 720632)
[10] = molecular target: E3 ubiquitin-protein ligase UHRF1 (Homo sapiens, UniProt Q96T88); test: Counterscreen for inhibitors of 5-meCpG-binding domain protein 2 (MBD2): TRFRET-based biochemical high throughput dose response assay to identify inhibitors of binding of ubiquitin-like with PHD and ring finger domains 1 (UHRF1) to methylated oligonucleotide.
Sequence of E3 ubiquitin-protein ligase UHRF1 (Q96T88 whole entry, the tested form may be a part): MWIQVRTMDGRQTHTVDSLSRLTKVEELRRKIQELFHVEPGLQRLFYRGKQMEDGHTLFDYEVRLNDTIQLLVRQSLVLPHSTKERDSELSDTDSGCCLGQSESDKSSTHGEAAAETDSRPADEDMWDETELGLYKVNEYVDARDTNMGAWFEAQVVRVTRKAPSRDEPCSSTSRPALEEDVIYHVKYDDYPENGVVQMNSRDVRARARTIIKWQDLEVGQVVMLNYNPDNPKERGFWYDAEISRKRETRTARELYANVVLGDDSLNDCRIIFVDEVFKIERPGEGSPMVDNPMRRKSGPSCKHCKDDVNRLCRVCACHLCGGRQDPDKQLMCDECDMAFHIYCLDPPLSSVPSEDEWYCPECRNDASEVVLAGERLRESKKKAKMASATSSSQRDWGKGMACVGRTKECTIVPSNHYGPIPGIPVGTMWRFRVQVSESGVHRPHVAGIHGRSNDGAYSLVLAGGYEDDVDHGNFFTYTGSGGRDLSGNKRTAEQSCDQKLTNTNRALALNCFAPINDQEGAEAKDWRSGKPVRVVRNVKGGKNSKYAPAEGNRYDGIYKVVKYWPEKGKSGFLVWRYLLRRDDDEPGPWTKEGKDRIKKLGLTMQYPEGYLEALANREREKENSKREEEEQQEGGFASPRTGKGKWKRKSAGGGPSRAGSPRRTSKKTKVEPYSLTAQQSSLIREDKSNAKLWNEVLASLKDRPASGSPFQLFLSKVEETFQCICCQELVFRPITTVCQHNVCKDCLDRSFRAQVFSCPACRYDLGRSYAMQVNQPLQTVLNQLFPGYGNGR

[11] = molecular target: T4, Tyrosyl-DNA phosphodiesterase 2 (Homo sapiens, UniProt O95551); test: potency against TDP2 phosphodiesterase activity – biochemical, epi absorbance, IC50, dose response (AID 743297)
T4 sequence (O95551 whole entry): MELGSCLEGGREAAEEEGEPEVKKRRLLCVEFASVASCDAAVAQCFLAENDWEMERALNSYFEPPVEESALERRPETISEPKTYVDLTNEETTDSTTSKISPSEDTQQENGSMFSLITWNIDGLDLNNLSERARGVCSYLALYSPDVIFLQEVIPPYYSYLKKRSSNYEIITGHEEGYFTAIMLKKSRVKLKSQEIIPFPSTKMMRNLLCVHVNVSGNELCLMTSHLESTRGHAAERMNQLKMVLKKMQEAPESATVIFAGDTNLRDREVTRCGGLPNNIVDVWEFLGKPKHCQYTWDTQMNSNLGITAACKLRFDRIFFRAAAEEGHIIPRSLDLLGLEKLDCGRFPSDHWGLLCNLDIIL

[12] = molecular target: T5, Endoplasmic reticulum aminopeptidase 1 (Homo sapiens, UniProt Q9NZ08); test: inhibition of human ERAP1 enzyme activity – biochemical, cherry-pick, set 2, plate reader, dose response (AID 743314)
T5 sequence (Q9NZ08 whole entry): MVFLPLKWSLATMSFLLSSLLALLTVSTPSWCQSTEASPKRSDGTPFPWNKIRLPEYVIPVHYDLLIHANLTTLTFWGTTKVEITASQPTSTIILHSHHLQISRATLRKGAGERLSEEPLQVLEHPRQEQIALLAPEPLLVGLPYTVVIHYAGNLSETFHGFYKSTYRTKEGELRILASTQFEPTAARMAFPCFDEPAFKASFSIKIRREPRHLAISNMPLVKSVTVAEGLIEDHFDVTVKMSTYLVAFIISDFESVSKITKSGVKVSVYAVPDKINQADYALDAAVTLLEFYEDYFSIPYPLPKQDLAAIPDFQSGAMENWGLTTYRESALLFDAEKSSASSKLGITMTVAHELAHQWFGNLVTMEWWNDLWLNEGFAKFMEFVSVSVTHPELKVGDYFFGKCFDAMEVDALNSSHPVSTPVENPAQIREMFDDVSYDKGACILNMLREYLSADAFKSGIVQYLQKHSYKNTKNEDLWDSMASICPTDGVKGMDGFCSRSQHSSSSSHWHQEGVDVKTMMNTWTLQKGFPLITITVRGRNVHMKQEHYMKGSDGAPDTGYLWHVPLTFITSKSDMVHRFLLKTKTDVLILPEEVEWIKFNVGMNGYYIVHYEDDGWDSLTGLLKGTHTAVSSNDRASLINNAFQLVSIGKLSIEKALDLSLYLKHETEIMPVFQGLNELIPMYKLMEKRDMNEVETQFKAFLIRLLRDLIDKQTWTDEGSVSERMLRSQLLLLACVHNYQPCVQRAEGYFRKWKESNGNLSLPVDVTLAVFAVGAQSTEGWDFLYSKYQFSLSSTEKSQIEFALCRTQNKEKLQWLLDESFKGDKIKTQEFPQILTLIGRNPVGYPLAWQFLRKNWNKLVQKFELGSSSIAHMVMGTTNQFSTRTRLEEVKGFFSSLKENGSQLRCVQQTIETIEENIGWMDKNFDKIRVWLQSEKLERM

[13] = molecular target: T5, Endoplasmic reticulum aminopeptidase 1; test: blocking ERAP1 cleavage of leucine-AMC substrate – biochemical, fluorescence plate reader, dry powder, dose response (AID 1117292); format: functional
Genome polyprotein = Genome polyprotein (dengue virus type 2, UniProt P29990); test: flavivirus cap methylation enzyme inhibition – biochemical, confirmation dose response, primary screen (AID 588689); format: functional
Sequence of Genome polyprotein (P29990 2492-3391 limits assumed): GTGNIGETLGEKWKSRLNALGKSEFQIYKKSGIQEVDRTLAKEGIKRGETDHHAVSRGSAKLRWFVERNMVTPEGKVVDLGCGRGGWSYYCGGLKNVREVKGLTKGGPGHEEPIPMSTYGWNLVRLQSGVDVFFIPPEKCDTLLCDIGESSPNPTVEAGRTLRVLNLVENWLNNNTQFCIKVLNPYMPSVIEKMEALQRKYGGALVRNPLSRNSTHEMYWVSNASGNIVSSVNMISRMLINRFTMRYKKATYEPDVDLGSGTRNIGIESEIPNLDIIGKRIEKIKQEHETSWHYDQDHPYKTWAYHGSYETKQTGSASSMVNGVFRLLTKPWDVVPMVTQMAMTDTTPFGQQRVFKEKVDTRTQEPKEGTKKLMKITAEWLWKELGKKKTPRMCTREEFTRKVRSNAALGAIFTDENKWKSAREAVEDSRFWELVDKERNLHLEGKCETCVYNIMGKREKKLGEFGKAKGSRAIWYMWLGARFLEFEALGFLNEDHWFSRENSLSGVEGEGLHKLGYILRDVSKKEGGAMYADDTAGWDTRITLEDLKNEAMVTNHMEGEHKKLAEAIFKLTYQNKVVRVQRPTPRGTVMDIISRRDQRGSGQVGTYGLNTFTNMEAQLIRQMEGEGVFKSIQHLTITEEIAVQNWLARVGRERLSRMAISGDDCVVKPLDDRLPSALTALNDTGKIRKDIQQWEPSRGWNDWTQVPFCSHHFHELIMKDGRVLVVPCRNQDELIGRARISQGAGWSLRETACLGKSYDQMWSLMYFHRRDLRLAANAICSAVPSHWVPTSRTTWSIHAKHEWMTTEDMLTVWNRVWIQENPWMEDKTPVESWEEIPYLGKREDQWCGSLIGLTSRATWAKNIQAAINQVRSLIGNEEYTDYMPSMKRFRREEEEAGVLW

[14] = molecular target: T6, Rac GTPase-activating protein 1 (Homo sapiens, UniProt Q9H0H5); test: blockers of MgcRacGAP-driven Rac1 GTP hydrolysis – biochemical, ADP Hunter fluorescence, primary and confirmatory, confirmation (AID 624330); format: functional
T6 sequence (Q9H0H5 whole entry): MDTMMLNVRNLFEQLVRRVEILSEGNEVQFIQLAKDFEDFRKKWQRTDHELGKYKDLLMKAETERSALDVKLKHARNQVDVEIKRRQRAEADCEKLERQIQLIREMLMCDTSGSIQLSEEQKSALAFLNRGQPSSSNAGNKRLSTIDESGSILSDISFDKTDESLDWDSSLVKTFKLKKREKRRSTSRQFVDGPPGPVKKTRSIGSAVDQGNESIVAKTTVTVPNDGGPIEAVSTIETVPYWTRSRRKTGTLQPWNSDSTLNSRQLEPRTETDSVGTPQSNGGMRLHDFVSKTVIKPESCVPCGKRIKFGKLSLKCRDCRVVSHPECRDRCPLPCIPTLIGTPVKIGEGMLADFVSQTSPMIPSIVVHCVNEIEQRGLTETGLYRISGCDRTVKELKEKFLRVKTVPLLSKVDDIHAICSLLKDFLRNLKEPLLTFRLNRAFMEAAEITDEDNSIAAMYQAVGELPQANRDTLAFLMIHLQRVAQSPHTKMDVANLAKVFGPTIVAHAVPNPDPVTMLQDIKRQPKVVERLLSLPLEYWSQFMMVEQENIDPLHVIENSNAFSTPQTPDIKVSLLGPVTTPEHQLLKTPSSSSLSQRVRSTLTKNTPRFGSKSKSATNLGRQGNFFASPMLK

[15] = molecular target: 1-phosphatidylinositol 4,5-bisphosphate phosphodiesterase gamma-1 (Homo sapiens, UniProt P19174); test: Counterscreen for inhibitors of phospholipase C isozymes (PLC-B3): Fluorescence-based biochemical high throughput dose response assay to identify inhibitors of phospholipase C isozymes (PLC-gamma1).
[16] = molecular target: 1-phosphatidylinositol 4,5-bisphosphate phosphodiesterase beta-3 (Homo sapiens, UniProt Q01970); test: Fluorescence-based biochemical high throughput dose response assay to identify inhibitors of phospholipase C isozymes (PLC-B3).
Sequence of 1-phosphatidylinositol 4,5-bisphosphate phosphodiesterase beta-3 (Q01970 whole entry): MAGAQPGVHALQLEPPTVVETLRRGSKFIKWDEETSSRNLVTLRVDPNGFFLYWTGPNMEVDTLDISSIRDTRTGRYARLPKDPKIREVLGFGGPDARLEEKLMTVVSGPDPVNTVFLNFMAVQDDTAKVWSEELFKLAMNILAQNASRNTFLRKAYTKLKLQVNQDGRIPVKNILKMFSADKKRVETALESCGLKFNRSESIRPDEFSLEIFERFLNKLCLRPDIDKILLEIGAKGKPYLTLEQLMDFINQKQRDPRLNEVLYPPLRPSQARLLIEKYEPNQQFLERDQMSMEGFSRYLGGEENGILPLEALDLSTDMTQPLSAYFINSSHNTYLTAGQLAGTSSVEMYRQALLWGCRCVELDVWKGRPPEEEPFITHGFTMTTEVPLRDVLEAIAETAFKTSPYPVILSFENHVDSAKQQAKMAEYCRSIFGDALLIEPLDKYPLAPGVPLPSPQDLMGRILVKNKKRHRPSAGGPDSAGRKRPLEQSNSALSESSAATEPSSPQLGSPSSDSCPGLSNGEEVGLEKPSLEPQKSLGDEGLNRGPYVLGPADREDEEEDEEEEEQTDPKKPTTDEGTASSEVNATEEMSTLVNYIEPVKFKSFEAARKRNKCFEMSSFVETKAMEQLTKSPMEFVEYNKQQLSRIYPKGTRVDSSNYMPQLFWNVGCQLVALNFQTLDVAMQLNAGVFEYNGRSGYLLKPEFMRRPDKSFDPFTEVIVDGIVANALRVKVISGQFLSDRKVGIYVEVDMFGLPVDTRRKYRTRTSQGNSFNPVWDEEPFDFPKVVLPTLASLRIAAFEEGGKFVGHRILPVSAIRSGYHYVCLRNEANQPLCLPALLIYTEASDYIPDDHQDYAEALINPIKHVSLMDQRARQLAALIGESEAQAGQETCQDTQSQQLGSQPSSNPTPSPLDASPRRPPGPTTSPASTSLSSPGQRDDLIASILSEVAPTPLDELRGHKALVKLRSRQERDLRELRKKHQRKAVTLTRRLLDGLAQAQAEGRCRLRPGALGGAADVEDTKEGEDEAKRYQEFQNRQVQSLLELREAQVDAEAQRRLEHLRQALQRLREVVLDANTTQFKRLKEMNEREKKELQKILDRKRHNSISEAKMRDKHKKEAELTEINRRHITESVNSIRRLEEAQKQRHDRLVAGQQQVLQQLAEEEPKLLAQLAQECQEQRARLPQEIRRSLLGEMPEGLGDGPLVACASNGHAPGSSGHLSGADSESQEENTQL

[17] = molecular target: Glutathione-S-transferase (Schistosoma japonicum, UniProt Q26513); test: GST-antibody interaction or FRET quenching – biochemical, TR-FRET, artefact control for Vif-APOBEC3G degradation inhibitor project, dose response (AID 1117362); format: functional
Sequence of Glutathione-S-transferase (Q26513 whole entry): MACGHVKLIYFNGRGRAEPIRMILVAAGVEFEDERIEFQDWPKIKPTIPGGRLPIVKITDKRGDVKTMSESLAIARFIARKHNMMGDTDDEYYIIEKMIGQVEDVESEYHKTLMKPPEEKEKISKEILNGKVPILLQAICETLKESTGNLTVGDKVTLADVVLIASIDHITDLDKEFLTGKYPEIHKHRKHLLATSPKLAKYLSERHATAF

CNc1ccc2nc3ccccc3[n+](C)c2c1.[O-][Cl+3]([O-])([O-])[O-]
inactive: AC50 [4] > 380 µM | IC50 [5] 35.1 µM | IC50 [10] > 43.8 µM | IC50 [11] > 128 µM
active: EC50 [1] 0.689 µM | CC50 [2] 18.3 µM | EC50 (Protein RecA) 2.37 µM | EC50 [6] 2.13 µM | IC50 [7] 18 µM | AC50 [8] 133 µM | IC50 [9] 14 µM | AC50 (Caspase-6) 2.79 µM
> 60 µM (not active): EC50 [3]

N=C(NCCc1c[nH]c2ccccc12)NS(=O)(=O)c1cc(F)ccc1F
active: AC50 [12] 6.09 µM | AC50 [13] 59.9 µM

O=C(O)c1cccc2cccc(-c3c4ccc(=O)c(O)c-4oc4c(O)c(O)ccc34)c12
inactive: IC50 [15] > 122 µM | IC50 [16] > 122 µM
active: IC50 (Genome polyprotein) 14.6 µM | IC50 [14] 13.3 µM | IC50 [17] > 100 µM
